Converted amounts (≈) assume the structure as drawn. “And” between values parts separate entries of the source, which are not always exact repeats. Equal values may be shown once. Read-outs that look alike come from different tables or passages of the source.
Legend:
[1] = target: recombinant human AKR1C3 (Homo sapiens (Human), UniProt P42330); assay: AKR1C3 enzyme inhibition assay (Coumberone to Coumberol fluorescence); assay type: biochemical; conditions: individual experimental determinations
recombinant human AKR1C3, sequence (P42330 whole entry): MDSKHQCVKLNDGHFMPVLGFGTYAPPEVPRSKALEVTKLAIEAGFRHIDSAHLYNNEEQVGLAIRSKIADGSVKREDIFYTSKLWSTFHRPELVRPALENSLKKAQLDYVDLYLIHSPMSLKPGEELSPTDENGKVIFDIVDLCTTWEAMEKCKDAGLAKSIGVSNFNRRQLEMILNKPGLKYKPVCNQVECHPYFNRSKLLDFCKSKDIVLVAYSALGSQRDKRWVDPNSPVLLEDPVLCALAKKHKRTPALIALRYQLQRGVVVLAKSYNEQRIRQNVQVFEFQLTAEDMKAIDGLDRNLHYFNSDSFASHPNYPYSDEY
Protocol: The AKR1C3-inhibitory activity of the substances of the present invention was measured in the AKR1C3 assay described in the paragraphs below.
Essentially, the enzyme activity is measured by quantification of the Coumberol from Coumberone (Halim, M., Yee, D. J., and Sames, D., J. AM. CHEM. SOC. 130, 14123-14128 (2008) and Yee, D. J., Balsanek, V., Bauman, D. R., Penning, T. M., and Sames, D., Proc. Natl. Acad. Sci. USA 103, 13304-13309 (2006)). In this test, the increase of the highly fluorescent Coumberol by NADPH—(nicotinamide adenine dinucleotide phosphate)-dependent reduction of the non-fluorescent Coumberone by AKR1C3 can be determined.
The enzyme used was recombinant human AKR1C3 (Aldo-keto reductase family 1 member C3) (GenBank Accession No. NM_003739). This was expressed in E. coli as GST (glutathione S transferase) fusion protein and purified by glutathione Sepharose affinity chromatography. The GST was removed by digestion with thrombin and subsequent size exclusion chromatography (Dufort, I., Rheault, P., Huang, X F., Soucy, P., and Luu-The, V., Endocrinology 140, 568-574 (1999)).
For the assay, 50 nl of a 100-fold concentrated solution of the test substance in DMSO were pipetted into a black low-volume 384-well microtiter plate (Greiner Bio-One, Frickenhausen, Germany), 2.0 μl of a solution of AKR1C3 in assay buffer [50 mM potassium phosphate buffer pH 7, 1 mM DTT, 0.0022% (w/v) Pluronic F-127, 0.01% BSA (w/v) and protease inhibitor cocktail (Complete, EDTA-free Protease Inhibitor Cocktail from Roche)] were added and the mixture was incubated for 15 min to allow pre-binding of the substances to the enzyme prior to the enzyme reaction. The enzyme reaction was then started by addition of 3 μl of a solution of NADPH (16.7 μM→final concentration in 5 μl of assay volume is 10 μM) and Coumberone (0.5 μM→final concentration in 5 μl of assay volume is 0.3 μM) in assay buffer, and the resulting mixture was incubated at 22° C. for the reaction time of 90 min. The concentration of the AKR1C3 was adapted to the respective activity of the enzyme preparation and adjusted such that the assay was carried out in the linear range. Typical concentrations were in the region of 1 nM. The reaction was stopped by addition of 5 μl of a stop solution consisting of the inhibitor EM-1404 [F. Labrie et al. U.S. Pat. No. 6,541,463, 2003] (2 μM→final concentration in […] is 1 μM). The fluorescence of the Coumberole was then measured at 520 nm (excitation at 380 nm) using a suitable measuring instrument (Pherastar from BMG Labtechnologies). The intensity of the fluorescence was used as a measure of the amount of Coumberole formed and thus of the enzyme activity of AKR1C3. The data were normalized (enzyme reaction without inhibitor=0% inhibition; all other assay components, but no enzyme=100% inhibition).

[2] = Thermodynamic solubility in aqueous buffer pH 6.5 (shake-flask method); assay type: physicochemical; conditions: thermodynamic from solid
Protocol: Determination of the Thermodynamic Solubility in Aqueous Buffer pH 6.5 (Shake-Flask Method)
The thermodynamic solubility was determined according to the shake-flask method [literature: Edward H. Kerns and Li Di (2008) Solubility Methods in: Drug-like Properties: Concepts, Structure Design and Methods, p 276-286. Burlington, Mass., Academic Press].
Here, a saturated solution of the active compound in buffer pH 6.5 was prepared and stirred for 24 h to ensure that an equilibrium between the solid and the substance in solution had formed. The solution was then centrifuged, and the concentration of the solution obtained was quantified with the aid of a calibration line.
For the sample, 2 mg of solid substance were weighed out accurately into a 4 ml glass bottle. 1 ml of phosphate buffer pH 6.5 was added. This solution was stirred on a stirrer at room temperature for 24 h. The solution was then centrifuged. To prepare the comparison for the calibration, 2 mg of solid substance were weighed out accurately and dissolved in 30 ml of acetonitrile. After a short ultrasound treatment, the solution was diluted with water to 50 ml.
Sample and comparison were quantified using HPLC with UV detection. […]
The areas of the sample and comparison injections and the calculation of the solubility (in mg/l) were determined using the HPLC software (Waters Empower 2 FR).

[3] = target: Human CYP17A1 (Homo sapiens (Human), UniProt P05093); assay: Inhibition of CYP17A1 (recombinant enzyme, progesterone hydroxylation, HPLC radio detection); assay type: biochemical; conditions: for IC50: read-out: IC50 ± SD CYP17
Human CYP17A1, sequence (P05093 whole entry): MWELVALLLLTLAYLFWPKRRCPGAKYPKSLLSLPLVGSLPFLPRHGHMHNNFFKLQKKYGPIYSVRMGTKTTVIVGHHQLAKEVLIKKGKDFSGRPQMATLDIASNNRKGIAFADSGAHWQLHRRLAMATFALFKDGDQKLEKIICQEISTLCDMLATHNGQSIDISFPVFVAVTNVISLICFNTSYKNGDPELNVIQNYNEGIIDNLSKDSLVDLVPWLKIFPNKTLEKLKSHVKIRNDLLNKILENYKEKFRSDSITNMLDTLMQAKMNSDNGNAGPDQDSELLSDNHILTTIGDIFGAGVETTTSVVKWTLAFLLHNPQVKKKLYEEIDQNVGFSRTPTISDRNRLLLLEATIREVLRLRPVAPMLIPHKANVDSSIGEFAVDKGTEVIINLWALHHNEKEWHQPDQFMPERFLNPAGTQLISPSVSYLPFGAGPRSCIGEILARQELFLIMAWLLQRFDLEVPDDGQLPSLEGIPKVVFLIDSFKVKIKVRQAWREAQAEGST
Protocol: The inhibition of CYP17A1 by the test compounds was evaluated using a recombinant enzyme. Human CYP17A1 was expressed in E. coli (Ehmer, P. B. et al.; J. Steroid Biochem. Mol. Biol., 75, 57-63 (2000)). The microsomal fraction and 140 μL of phosphate buffer (50 mM Na phosphate, 1 mM MgCl2, 0.1 mM EDTA, 0.1 mM dithiothreitol, pH 7.4) were preincubated separately with a mixture of progesterone (24.95 μM) and ^3H-progesterone (0.05 μM, 101.3 Ci/mmol), […] of an NADPH regeneration system (in phosphate buffer with 10 mM NADP+, 100 mM glucose 6-phosphate and 2.5 U of glucose 6-phosphate dehydrogenase) and the appropriate test substances (in 5 μl of DMSO) at 37° C. for 5 minutes. The reaction was started by addition of the enzyme and, after 30 minutes of incubation at 37° C., stopped by addition of 50 μl of 1N hydrochloric acid.
The steroids were extracted with ethyl acetate. After evaporation of the organic phase, the steroids were taken up in acetonitrile. 16α-Hydroxyprogesterone, 17α-hydroxyprogesterone and progesterone were separated using acetonitrile/water (45:55) as mobile phase on a C18 reverse-phase chromatography column (Nucleodur C18 Gravity, 3 μm, Macherey-Nagel, Düren, Germany) on an HPLC system (Agilent 1100 Series, Agilent Technologies, Waldbronn, Germany). Detection and quantification of the steroids was carried out using a radio flow detector (Berthold Technologies, Bad Wildbad, Germany). The inhibition was calculated using the formula below: […]
Each value was calculated from at least three independent experiments. The final IC50 value was calculated as the mean of 3 or 4 independent IC50 values.

[4] = human CYP17A1 expressed in E. coli, mean of 3 or 4 independent IC50 values

Structure (SMILES)	IC50 [1]	IC50 [3, 4]	further results
CN(CCC(=O)O)C(=O)c1ccc2c(c1)CC[C@@H]1[C@@H]2CC[C@]2(C)C(c3cncc(F)c3)=CC[C@@H]12 [Example 2, N-{[17-(5-Fluoropyridin-3-yl)estra-1,3,5(10),16-tetraen-3-yl]carbonyl}-N-methyl-β-alanine]	0.0013 µM and 0.0014 µM	~200 µM	solubility at 24 h ([2]; pH 6.5, aqueous buffer): 354 µg/mL (≈ 765 µM); % Inhibition at a concentration of 200 μM substance ([3]; human CYP17, 200 μM substance): 49%
C[C@]12CC[C@@H]3c4ccc(C(=O)NCCC(=O)O)cc4CC[C@H]3[C@@H]1CC=C2c1cncc(F)c1 [Example 9, N-{[17-(5-Fluoropyridin-3-yl)estra-1,3,5(10),16-tetraen-3-yl]carbonyl}-β-alanine]	8.3 nM and 8.9 nM (2×)	–	IC50 ± SD CYP17 [3, 4]: No inhibition
CC1(C)CC[C@@]2(CC[C@H]3[C@@H]4CCc5cc(C(N)=O)ccc5[C@H]4CC[C@@]32C)OC1=O [EM-1404, reference compound]	–	–	solubility at 24 h ([2]; aqueous buffer, phosphate buffer pH 6.5, room temperature, 24 h, shake-flask, read-out: solubility): 0.1 µg/mL (≈ 0.253 µM)
C[C@]12CC[C@H](O)CC1=CC[C@@H]1[C@@H]2CC[C@]2(C)C(c3cccnc3)=CC[C@@H]12 [Abiraterone, abiraterone, reference compound]	–	0.029 ± 0.004 µM	–
C[C@]12CC[C@@H]3c4ccc(C(=O)NCC(=O)O)cc4CC[C@H]3[C@@H]1CC=C2c1cncc(F)c1 [Example 10, N-{[17-(5-Fluoropyridin-3-yl)estra-1,3,5(10),16-tetraen-3-yl]carbonyl}glycine]	0.0049 µM and 0.0073 µM	15.2 ± 1.58 µM	–
CC(C)(CNC(=O)c1ccc2c(c1)CC[C@@H]1[C@@H]2CC[C@]2(C)C(c3cncc(F)c3)=CC[C@@H]12)C(=O)O [Example 5, 3-({[17-(5-Fluoropyridin-3-yl)estra-1,3,5(10),16-tetraen-3-yl]carbonyl}amino)-2,2-dimethylpropanoic acid]	0.0091 µM and 0.008 µM and 0.0043 µM and 0.0036 µM	85.5 ± 7.7 µM	–
CN(CCC(=O)O)C(=O)c1ccc2c(c1)CC[C@H]1[C@@H]3[C@@H](O)C=C(c4cncc(F)c4)[C@@]3(C)CC[C@H]21 [Example 26, N-{[17-(5-Fluoropyridin-3-yl)-15α-hydroxyestra-1,3,5(10),16-tetraen-3-yl]carbonyl}-N-methyl-β-alanine]	0.011 µM and 0.0166 µM	–	–
C[C@]12C[C@H](F)[C@@H]3c4ccc(C(=O)NCCCC(=O)O)cc4CC[C@H]3[C@@H]1CC=C2c1cncc(F)c1 [Example 25, 4-({[11β-Fluoro-17-(5-fluoropyridin-3-yl)estra-1,3,5(10),16-tetraen-3-yl]carbonyl}-amino)butanoic acid]	0.0291 µM and 0.0168 µM	–	–

Reference: patent US9487554B2, “Estra-1,3,5(10),16-tetraene-3-carboxamide derivatives, processes for their preparation, pharmaceutical preparations comprising them and their use for preparing medicaments” (BAYER INTELLECTUAL PROPERTY GmbH, priority 2011, dated 2016)
